These results are taken from publication PMC12770330 (Scientific Reports, 2025).

Assay [1] concerns α-glucosidase. The experiment in a line: α-glucosidase inhibitory assay. The assay is classed as biochemical, Saccharomyces cerevisiae.
Assay [2] concerns α-glucosidase. The experiment in a line: in vitro kinetic analysis of α-glucosidase inhibition. The class given is biochemical, Saccharomyces cerevisiae.

SMILES strings stand for the structures.

Turning to `CCNC(=S)NC1c2ccccc2CC1O` (stereo not drawn) [Compound 2d, 1-ethyl-3-(2-hydroxy-2,3-dihydro-1H-inden-1-yl) thiourea], in the assay on α-glucosidase [1], the “α-glucosidase inhibitory activity (in words)” value was “inactive”. In the case of `COc1ccc(NC(=S)NC2c3ccccc3CC2O)cc1` (stereo not drawn) [Compound 2h, 1-(2-hydroxy-2,3-dihydro-1 H-inden-1-yl)-3-(4-methoxyphenyl) thiourea], in the assay with α-glucosidase [2] (Km increases, Vmax unchanged), the mode of inhibition result is “competitive”. Also, at α-glucosidase [2] (inhibitor 5.00, 10.00, 20.00 µM, substrate 4-nitrophenyl α-D-glucopyranoside), the Ki worked out at 7.39 ± 0.088 µM.

What is called Ki is the dissociation constant of the complex between target and ligand, obtained from inhibition or displacement. A low value points to tighter binding.
